Patent US10213407B2, “Compounds and methods for inhibiting production of trimethylamine” (The Procter & Gamble Company, priority 2015, dated 2019)

test system: Proteus mirabilis 29906 (Pm) lysate; experiment: Inhibition of formation of TMA from choline in Proteus mirabilis lysate (d9-choline to d9-TMA, LC-MS/MS); format: biochemical; settings: conversion of choline to TMA; Pm lysate 1.5 mg/mL protein, 50 μM d9-choline chloride, 37° C., two hours; read-out: TMA Inhibition (IC50, mol/L)
Procedure: EXAMPLE 2 Assay for identifying and characterizing compounds that inhibit the formation of TMA from choline.
This example provides an exemplary assay for identifying and characterizing compounds that inhibit the formation of TMA from choline.
Proteus mirabilis 29906 (Pm) strain was grown aerobically overnight in 500 ml of Nutrient Broth media (3 g/L beef extract, 5 g/L Peptone; Difco #234000) at 37° C. with 250 rpm shaking. The biomass was pelleted by centrifugation at 6000×g for 12 minutes at 4° C. The cell pellet was suspended in 240 mL of ice-cold 1× Phosphate Buffered Saline (Ca^2+ and Mg^2+ free). Ninety micrograms of Lysozyme (Sigma #L6876 Lot #SLBG8654V; Sigma-Aldrich Corp., St. Louis, Mo.) was added and incubated with 320 rpm shaking for 30 minutes at 4° C. Lysis was achieved via French press with a 4° C. prechilled 1″ diameter chamber at 1000 psi (high ratio; internal PSI equivalent ˜16000). The lysate was centrifuged at 6,000×g for 12 minutes at 4° C. to pellet extra debris. A protein concentration of the centrifuged lysate supernatant was determined by a BCA Protein Assay Kit (Pierce #23225; Thermo Fisher Scientific Co., Waltham, Mass.) and protein concentration adjusted to 3 mg/ml with 1× Dulbecco's phosphate buffered saline (DPBS). The centrifuged supernatant lysate was aliquoted into 20 mL volumes and stored frozen at −80° C.
Proteus mirabilis 29906 (Pm) lysate was diluted to 1.5 mg/mL protein with 1×DPBS. Choline chloride (CC) (1M stock) was added to reach a final concentration of 2.5 mM choline chloride. The mixture was mixed using a vortex mixer for approximately 15 seconds and incubated at 37° C. for 22 hours. After incubation, 150 μL of CC-treated Pm lysate was dispensed into a deep-well plate (polypropylene, 2 mL volume, Corning Axygen catalogue #P-DW-20-C). Candidate IC50 compounds from TABLE 1 and vehicle control (respective vehicle control of DMSO or water), or control compounds (IC50 control, 8-Quinolinol hemisulfate salt (Sigma Catalog #55100)) were added at a 1:100 dilution (e.g., 1.5 μL per well). The plates were agitated on a plate shaker for 1 minute. d9-choline chloride (1.5 μL of 5 mM) was added to all wells to reach a final d9-choline chloride concentration of 50 μM.
The plates were again agitated on a plate shaker for 1 minute and incubated at 37° C. for two hours. After incubation, 1.5 μL of formic acid was added to each well (final concentration=1% formic acid). The plates were agitated on a plate shaker for 1 minute and placed on ice. Cell lysate samples were spiked with stable isotope labeled internal standard (22.5 μL of 6 μg/mL of 13C3-trimethylamine (13C3-TMA) was added to each sample), then d9-trimethylamine (d9-TMA), trimethylamine (TMA) and 13C3-TMA were isolated from the lysate after protein precipitation as described below. Acetonitrile acidified with 0.1% formic acid, 600 μL, was added to each sample which was then centrifuged (2,100 g for 20 minutes) to pellet the protein and other precipitates. The supernatant was removed and analyzed as described below. The TMA, d9-TMA and 13C3-TMA in the isolated supernatant samples were subjected to gradient High Performance Liquid Chromatography (HPLC) analysis on a Waters Atlantis HILIC Silica column, from Waters Corp., Milford, Mass., (2.1×50 mm, 3 μm particles) with an Atlantis Silica HILIC Sentry guard column, from Waters Corp., Milford, Mass., (100 Å, 3 μm, 2.1 mm×10 mm), 10 mM ammonium formate in water with 0.1% formic acid as mobile phase A and 0.1% formic acid in acetonitrile as mobile phase B. Detection and quantitation was achieved by tandem mass spectrometry operating under multiple reaction monitoring (MRM) MS/MS conditions (m/z 60.1→44.1 for TMA, m/z 69.1→49.1 for d9-TMA, m/z 63.0→46.1 for 13C3-TMA). TMA and d9-TMA calibration standards (STD), prepared in 80/20/0.1% acetonitrile/Water/Formic Acid, were used to construct a regression curve by plotting the response (peak area TMA/peak area 13C3-TMA) versus concentration for each standard. […]

First: CC[N+](C)(CC)CCCN=C=S [Compound 2, 3-Isothiocyanato-N,N-diethyl-N-methylpropanaminium iodide]
Second: CC[N+](CC)(CCBr)CCCN=C=S [Compound 7, N-(2-Bromoethyl)-3-isothiocyanato-N,N-diethylpropan-1-aminium triflate]
The IC50 of the first is 1.7-fold lower: 10.6 µM for the first, 18.2 µM for the second. The first is the more potent here.

Compared with `CCOC(=O)C(=O)C[N+](C)(C)CCN=C=S` [Compound 5, N-(Ethoxypropyl-2,3-dione)-2-isothiocyanato-N,N-dimethylethan-1-aminium bromide], `CCOC(=O)C(=O)C[N+](C)(C)CCCN=C=S` [Compound 6] is 53-fold lower in IC50: 769 µM for the first, 14.4 µM for the second. The second is the more potent here.

For `CC[N+](CC)(CC#N)CCCN=C=S` [Compound 9, N-Cyanomethyl-3-isothiocyanato-N,N-diethylpropan-1-aminium bromide], the IC50 was 60.5 µM.
